Assay results reported in ChEMBL document CHEMBL4266048, “Halogenated Meroditerpenoids from a South Pacific Collection of the Red Alga Callophycus serratus” (J Nat Prod, 2018).
pIC50: −log10 of the molar value. Activity calls are given as the source filed them. The calls are words filed in the database; no cut-off is given here.

System: HL-60
Assay: Cytotoxicity against human HL60 cells after 48 hrs by MTT assay
Type: functional, cell-based
Details: for pIC50: HL-60, 48 h

## C=C1CC[C@@H](Br)C(C)(C)[C@H]1CC[C@@]1(C)[C@H](Cc2cc(Br)ccc2O)/C(=C/I)CC[C@@H]1Br
  pIC50: 5.29

## CC1=C2Cc3cc(ccc3O)C(=O)OC(C)(C)[C@H](Br)CC[C@]3(C)O[C@H]3C[C@]2(C)[C@@H](Br)CC1 [BROMOPHYCOLIDE T]
  pIC50: 5.22

## CC[C@H](/C=C(/C)[C@@H]1C[C@@H](OC)C[C@H](O)C(C)(C)[C@@]2(O)O[C@@H](C[C@@H](OC)[C@H](O)C(=O)O1)C[C@@H](OC)[C@H]2O)CO
  pIC50: 5.00

## C=C1CC=CC(C)(C)[C@H]1CC[C@@]1(C)[C@H](Cc2cc(Br)ccc2O)/C(=C/I)CC[C@@H]1Br
  Activity: inactive

## CC1=C2Cc3cc(ccc3O)C(=O)O[C@H](C(C)(C)Br)CC[C@](C)(O)[C@H](Br)CC[C@]2(C)[C@@H](Br)CC1
  pIC50: 5.21
